Common to all, as to assay type: cell-based
The test system of assay [1] is tetrodotoxin-sensitive voltage-gated sodium channels including NaV1.2, NaV1.3 and NaV1.7. Kind of assay: TTX-S Assay (VIPR, SHSY-5Y cell line, veratridine opener). Particulars: read-out: TTX-S IC50, veratridine 50 μM opener, average of replicates.
The target in the next assay is T1, Human Nav1.8 (Homo sapiens, UniProt Q9Y5Y9).
T1 construct: expressed in transfected cells; host or cells: HEK293
Kind of assay: VIPR Assay for Nav1.8 Compounds (FRET membrane potential, deltamethrin opener).

A further assay has as its target T2, Human Nav1.5 (Homo sapiens, UniProt Q14524).
T2 construct: expressed in transfected cells; host or cells: HEK293
Kind of assay: Nav1.5 Assay (VIPR, HEK293 cells). Particulars: HEK293 cells expressing Human Nav1.5; average of replicates; read-out: Nav1.5 IC50. On the procedure:
The Nav1.5 assay is performed in HEK293 cells expressing Human Nav1.5 in the same way as the Nav1.8 assay.
Where replicate experiments were conducted resulting in multiple sets of data for a test compound, the data presented represent the average value from all replicate experiments.

Where [2] appears, read: VIPR FRET membrane potential assay, deltamethrin opener, average of replicates, read-out: Nav1.8 IC50.

pIC50: −log10 of the molar value. Like-named read-outs stand apart in the source and are kept apart here.

T1 sequence (Q9Y5Y9 whole entry): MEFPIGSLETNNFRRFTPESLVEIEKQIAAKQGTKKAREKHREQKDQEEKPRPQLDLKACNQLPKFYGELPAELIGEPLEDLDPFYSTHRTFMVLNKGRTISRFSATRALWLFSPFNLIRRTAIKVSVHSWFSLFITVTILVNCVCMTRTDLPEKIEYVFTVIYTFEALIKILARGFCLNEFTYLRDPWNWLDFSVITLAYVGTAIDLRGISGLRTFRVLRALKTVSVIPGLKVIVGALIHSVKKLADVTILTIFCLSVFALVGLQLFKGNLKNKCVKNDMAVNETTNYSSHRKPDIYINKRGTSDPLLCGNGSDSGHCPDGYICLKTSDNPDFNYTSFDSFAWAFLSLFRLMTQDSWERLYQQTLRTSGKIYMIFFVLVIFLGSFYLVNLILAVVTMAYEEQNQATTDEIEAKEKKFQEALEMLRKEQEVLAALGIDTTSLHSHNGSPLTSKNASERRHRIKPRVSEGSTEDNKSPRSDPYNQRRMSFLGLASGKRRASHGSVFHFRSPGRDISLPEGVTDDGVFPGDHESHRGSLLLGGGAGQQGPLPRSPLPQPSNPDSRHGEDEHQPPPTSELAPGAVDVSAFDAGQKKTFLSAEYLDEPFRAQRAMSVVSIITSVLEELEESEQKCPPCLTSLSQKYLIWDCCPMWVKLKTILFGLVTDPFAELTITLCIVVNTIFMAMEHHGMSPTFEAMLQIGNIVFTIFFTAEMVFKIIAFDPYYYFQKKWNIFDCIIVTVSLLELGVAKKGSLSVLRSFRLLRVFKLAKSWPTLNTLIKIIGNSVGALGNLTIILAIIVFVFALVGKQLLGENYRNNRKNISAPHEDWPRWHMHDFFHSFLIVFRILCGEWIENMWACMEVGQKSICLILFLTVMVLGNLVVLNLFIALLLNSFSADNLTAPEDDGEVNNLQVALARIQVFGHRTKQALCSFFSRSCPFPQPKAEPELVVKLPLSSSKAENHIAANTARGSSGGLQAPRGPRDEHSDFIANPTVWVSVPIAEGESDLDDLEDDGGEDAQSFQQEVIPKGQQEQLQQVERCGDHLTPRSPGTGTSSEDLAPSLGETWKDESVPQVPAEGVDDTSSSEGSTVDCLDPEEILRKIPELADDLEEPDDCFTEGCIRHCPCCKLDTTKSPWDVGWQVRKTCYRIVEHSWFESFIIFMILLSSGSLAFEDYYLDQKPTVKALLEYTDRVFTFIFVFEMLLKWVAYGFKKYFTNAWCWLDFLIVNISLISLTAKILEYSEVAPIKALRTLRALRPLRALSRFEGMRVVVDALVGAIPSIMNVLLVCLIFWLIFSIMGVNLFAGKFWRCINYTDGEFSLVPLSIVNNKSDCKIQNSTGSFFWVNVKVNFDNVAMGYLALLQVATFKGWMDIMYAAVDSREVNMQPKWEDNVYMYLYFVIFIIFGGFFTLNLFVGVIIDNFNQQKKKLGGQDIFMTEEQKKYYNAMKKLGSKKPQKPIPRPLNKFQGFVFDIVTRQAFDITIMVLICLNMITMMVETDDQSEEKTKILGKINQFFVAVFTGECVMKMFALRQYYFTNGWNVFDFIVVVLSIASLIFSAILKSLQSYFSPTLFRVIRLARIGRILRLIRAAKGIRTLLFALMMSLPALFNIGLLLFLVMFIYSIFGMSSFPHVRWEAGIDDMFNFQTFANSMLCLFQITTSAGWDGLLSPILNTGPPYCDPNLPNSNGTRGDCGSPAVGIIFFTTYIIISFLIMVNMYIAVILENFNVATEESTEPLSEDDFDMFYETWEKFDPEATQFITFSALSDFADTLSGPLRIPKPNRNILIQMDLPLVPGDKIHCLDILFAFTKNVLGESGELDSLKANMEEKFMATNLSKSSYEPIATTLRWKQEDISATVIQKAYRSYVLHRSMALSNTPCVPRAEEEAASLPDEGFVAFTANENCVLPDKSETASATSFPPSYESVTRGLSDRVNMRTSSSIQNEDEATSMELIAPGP
T2 sequence (Q14524 whole entry): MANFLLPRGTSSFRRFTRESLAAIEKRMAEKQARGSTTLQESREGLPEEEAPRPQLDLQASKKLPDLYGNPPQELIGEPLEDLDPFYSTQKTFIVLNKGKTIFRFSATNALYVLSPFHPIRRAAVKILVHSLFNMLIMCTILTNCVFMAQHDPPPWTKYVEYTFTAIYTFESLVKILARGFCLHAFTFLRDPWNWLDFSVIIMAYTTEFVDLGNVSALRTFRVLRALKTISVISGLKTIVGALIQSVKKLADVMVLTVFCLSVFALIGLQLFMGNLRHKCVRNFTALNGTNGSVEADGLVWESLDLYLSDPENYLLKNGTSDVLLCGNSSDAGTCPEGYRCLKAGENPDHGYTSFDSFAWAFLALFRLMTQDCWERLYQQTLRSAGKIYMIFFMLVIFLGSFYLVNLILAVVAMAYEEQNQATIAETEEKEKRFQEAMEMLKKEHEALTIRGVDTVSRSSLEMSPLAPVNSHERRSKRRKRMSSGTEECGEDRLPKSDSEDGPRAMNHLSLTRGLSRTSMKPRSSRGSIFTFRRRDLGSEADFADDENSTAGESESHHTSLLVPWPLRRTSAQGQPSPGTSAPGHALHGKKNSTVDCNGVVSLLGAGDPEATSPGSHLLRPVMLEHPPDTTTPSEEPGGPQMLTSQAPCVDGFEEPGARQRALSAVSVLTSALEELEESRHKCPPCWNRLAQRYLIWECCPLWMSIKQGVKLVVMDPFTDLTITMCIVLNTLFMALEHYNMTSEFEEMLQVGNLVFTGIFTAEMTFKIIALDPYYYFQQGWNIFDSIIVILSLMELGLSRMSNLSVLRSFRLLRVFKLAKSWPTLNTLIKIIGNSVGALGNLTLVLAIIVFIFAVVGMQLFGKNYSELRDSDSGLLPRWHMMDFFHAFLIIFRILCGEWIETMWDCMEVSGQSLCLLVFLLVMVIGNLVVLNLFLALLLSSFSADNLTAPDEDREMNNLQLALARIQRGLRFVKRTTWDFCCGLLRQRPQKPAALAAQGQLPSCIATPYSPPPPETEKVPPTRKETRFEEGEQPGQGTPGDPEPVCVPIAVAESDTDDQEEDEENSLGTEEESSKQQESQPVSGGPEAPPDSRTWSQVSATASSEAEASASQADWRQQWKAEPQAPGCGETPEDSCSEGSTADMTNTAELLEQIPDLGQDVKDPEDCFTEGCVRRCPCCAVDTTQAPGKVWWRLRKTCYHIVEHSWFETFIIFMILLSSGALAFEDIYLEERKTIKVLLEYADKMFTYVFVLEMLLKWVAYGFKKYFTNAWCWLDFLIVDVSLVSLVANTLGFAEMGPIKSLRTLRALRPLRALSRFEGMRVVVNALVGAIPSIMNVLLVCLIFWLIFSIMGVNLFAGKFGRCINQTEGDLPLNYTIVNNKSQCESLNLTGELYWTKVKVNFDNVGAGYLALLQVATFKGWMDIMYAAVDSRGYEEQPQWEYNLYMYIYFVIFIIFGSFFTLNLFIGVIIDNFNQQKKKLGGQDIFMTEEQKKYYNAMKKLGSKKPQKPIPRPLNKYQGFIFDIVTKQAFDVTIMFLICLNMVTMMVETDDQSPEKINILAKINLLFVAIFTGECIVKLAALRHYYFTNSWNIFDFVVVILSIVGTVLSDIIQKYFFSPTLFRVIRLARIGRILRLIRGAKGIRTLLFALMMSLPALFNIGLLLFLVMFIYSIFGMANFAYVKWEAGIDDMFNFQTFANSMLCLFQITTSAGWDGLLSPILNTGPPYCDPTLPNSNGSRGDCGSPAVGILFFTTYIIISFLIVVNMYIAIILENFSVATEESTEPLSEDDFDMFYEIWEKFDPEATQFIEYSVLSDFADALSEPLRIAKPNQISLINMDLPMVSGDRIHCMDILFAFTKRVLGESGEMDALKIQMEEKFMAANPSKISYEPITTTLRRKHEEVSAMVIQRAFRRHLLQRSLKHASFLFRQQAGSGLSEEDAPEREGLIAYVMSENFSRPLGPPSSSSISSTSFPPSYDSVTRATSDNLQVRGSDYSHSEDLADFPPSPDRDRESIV

Broadly, the pIC50 is −log10 of the IC50, conventionally taken in molar units. As for `Nc1nc(NC(=O)c2ccon2)ccc1-c1ccccc1Cl` [Example 74, N-[6-Amino-5-(2-chlorophenyl)pyridin-2-yl]isoxazole-3-carboxamide], the results for the pIC50 (in assay [1]; at Human Nav1.8 (setting [2])) were 4.52 and 5.38, respectively.

Turning to `Nc1nc(NC(=O)c2ccno2)ccc1-c1ccccc1Cl` [Example 77, N-[6-Amino-5-(2-chlorophenyl)pyridin-2-yl]isoxazole-5-carboxamide], the pIC50 was less than 4.49 in assay [1] and 5.30 on Human Nav1.8 (setting [2]).

Take `COc1cccc(C(=O)Nc2ccc(-c3cc(Cl)ccc3Cl)c(N)n2)c1` [Example 102]: the pIC50 in assay [1] was 5.27; on Human Nav1.8 (setting [2]), 5.64.

With `Nc1nc(NC(=O)c2ccon2)ccc1-c1cc(Cl)ccc1Cl` [Example 72, N-[6-Amino-5-(2,5-dichlorophenyl)pyridin-2-yl]isoxazole-3-carboxamide], the pIC50 in assay [1] was 4.82; at Human Nav1.8 (setting [2]), 5.07.

For the compound `COc1cc(OC)cc(C(=O)Nc2ccc(-c3cc(Cl)ccc3Cl)c(N)n2)c1` [Example 104], the values for the pIC50 (in assay [1]; at Human Nav1.8 (setting [2])) were 5.10 and 5.48, respectively.

Regarding `CC(C)Oc1ccc(F)cc1-c1ccc(NC(=O)c2ccnn2C)nc1N` [Example 109, N-[6-amino-5-(5-fluoro-2-isopropoxyphenyl)pyridin-2-yl]-1-methyl-1H-pyrazole-5-carboxamide], the pIC50 at Human Nav1.8 (setting [2]) was 5.24; at Human Nav1.5, 4.57.

For `Nc1nc(NC(=O)c2ccccc2Cl)ccc1-c1cc(Cl)ccc1Cl` [Example 101], the pIC50 is 5.21 in assay [1] and 5.43 at Human Nav1.8 (setting [2]).

In the case of `Cc1nonc1C(=O)Nc1ccc(-c2ccccc2Cl)c(N)n1` [Example 46, N-[6-Amino-5-(2-chlorophenyl)pyridin-2-yl]-4-methyl-1,2,5-oxadiazole-3-carboxamide], the pIC50 in assay [1] was 4.52; on Human Nav1.8 (setting [2]), 5.92.

On to `Cc1ccc(OC(F)(F)F)c(-c2ccc(NC(=O)c3ccnn3C)nc2N)c1` [Example 137], for which the results for the pIC50 at Human Nav1.8 (setting [2]) and on Human Nav1.5 were 5.92 and 4.74, respectively.

On to `COC(C)COc1ccc(F)cc1-c1ccc(NC(=O)c2conc2C)nc1N` (centres unmarked) [Example 159], for which the pIC50 at Human Nav1.8 (setting [2]) was 5.33; on Human Nav1.5, less than 4.49.

On to `COc1cccc(-c2ccc(NC(=O)c3conc3C)nc2N)c1OC` [Example 133], for which the pIC50 on Human Nav1.8 (setting [2]) is 5.54; on Human Nav1.5, less than 4.49.

On to `Cc1oncc1C(=O)Nc1ccc(-c2cc(Cl)ccc2Cl)c(N)n1` [Example 21, N-[6-Amino-5-(2,5-dichlorophenyl)pyridin-2-yl]-5-methylisoxazole-4-carboxamide], for which the results for the pIC50 (in assay [1]; at Human Nav1.8 (setting [2])) were 4.57 and 4.64, respectively.

Consider `COc1ccc(Cl)c(-c2ccc(NC(=O)c3nonc3C)nc2N)c1` [Example 45, N-[6-Amino-5-(2-chloro-5-methoxyphenyl)pyridin-2-yl]-4-methyl-1,2,5-oxadiazole-3-carboxamide], for which the values for the pIC50 (in assay [1]; at Human Nav1.8 (setting [2])) were 4.89 and 5.59, respectively.

Consider `Cc1nocc1C(=O)Nc1ccc(-c2cc(Cl)ccc2OCC(F)(F)F)c(N)n1` [Example 163], for which the pIC50 on Human Nav1.8 (setting [2]) was 6.32; at Human Nav1.5, 5.00.

On to `Cn1nncc1C(=O)Nc1ccc(-c2ccc(Cl)cc2Cl)c(N)n1` [Example 79, N-[6-Amino-5-(2,4-dichlorophenyl)pyridin-2-yl]-1-methyl-1H-1,2,3-triazole-5-carboxamide], for which the pIC50 was 4.66 in assay [1] and 5.24 at Human Nav1.8 (setting [2]).

Take `Nc1nc(NC(=O)c2ccc(Cl)cc2)ccc1-c1cc(Cl)ccc1Cl` [Example 100]: the results for the pIC50 (in assay [1]; on Human Nav1.8 (setting [2])) were 5.36 and 5.20, respectively.

Take `COC(C)COc1ccc(F)cc1-c1ccc(NC(=O)c2ccnn2C)nc1N` (centres unmarked) [Example 158]: the pIC50 is 4.82 at Human Nav1.8 (setting [2]) and less than 4.49 at Human Nav1.5.

In the case of `COCCOc1ccccc1-c1ccc(NC(=O)c2ccnn2C)nc1N` [Example 155], the pIC50 at Human Nav1.8 (setting [2]) is 4.74; on Human Nav1.5, less than 4.49.

In the case of `Cc1nonc1C(=O)Nc1ccc(-c2ccc(Cl)cc2Cl)c(N)n1` [Example 49, N-[6-Amino-5-(2,4-dichlorophenyl)pyridin-2-yl]-4-methyl-1,2,5-oxadiazole-3-carboxamide], the values for the pIC50 (in assay [1]; at Human Nav1.8 (setting [2])) were 4.92 and 5.21, respectively.

As for `CC(C)n1nccc1C(=O)Nc1ccc(-c2ccccc2Cl)c(N)n1` [Example 66, N-[6-Amino-5-(2-chlorophenyl)pyridin-2-yl]-1-isopropyl-1H-pyrazole-5-carboxamide], the values for the pIC50 (in assay [1]; on Human Nav1.8 (setting [2])) were 4.96 and 5.62, respectively.

On to `CCCOc1ccc(F)cc1-c1ccc(NC(=O)c2ccnn2C)nc1N` [Example 136], for which the pIC50 on Human Nav1.8 (setting [2]) is 6.22; at Human Nav1.5, 4.57.

With `COc1cc(Cl)cc(-c2ccc(NC(=O)c3nonc3C)nc2N)c1Cl` [Example 51, N-[6-Amino-5-(2,5-dichloro-3-methoxyphenyl)pyridin-2-yl]-4-methyl-1,2,5-oxadiazole-3-carboxamide], the results for the pIC50 (in assay [1]; at Human Nav1.8 (setting [2])) were 5.35 and 5.59, respectively.

For the compound `CCCCOc1ccc(F)cc1-c1ccc(NC(=O)c2ccnn2C)nc1N` [Example 144], the pIC50 at Human Nav1.8 (setting [2]) is 6.28; on Human Nav1.5 it was 4.64.

For `Nc1nc(NC(=O)c2ccno2)ccc1-c1cc(Cl)ccc1Cl` [Example 75, N-[6-Amino-5-(2,5-dichlorophenyl)pyridin-2-yl]isoxazole-5-carboxamide], the pIC50 in assay [1] is 4.62; on Human Nav1.8 (setting [2]), 5.85.

With `Cc1nocc1C(=O)Nc1ccc(-c2cc(Cl)ccc2Cl)c(N)n1` [Example 25, N-[6-Amino-5-(2,5-dichlorophenyl)pyridin-2-yl]-3-methylisoxazole-4-carboxamide], the pIC50 in assay [1] is 5.00; at Human Nav1.8 (setting [2]), 5.80.

On to `Nc1nc(NC(=O)c2ccccc2)ccc1-c1cc(Cl)ccc1Cl` [Example 97], for which the pIC50 in assay [1] was 5.27; on Human Nav1.8 (setting [2]), 5.72.

Regarding `COCCCOc1ccc(F)cc1-c1ccc(NC(=O)c2ccnn2C)nc1N` [Example 153], the pIC50 was 5.06 on Human Nav1.8 and less than 4.49 on Human Nav1.5.

In the case of `Cc1nocc1C(=O)Nc1ccc(-c2ccccc2OCC(F)(F)F)c(N)n1` [Example 134], the pIC50 on Human Nav1.8 (setting [2]) is 6.39; at Human Nav1.5, 4.74.

Take `COCc1ccc(Cl)c(-c2ccc(NC(=O)c3ccnn3C)nc2N)c1` [Example 141]: the pIC50 on Human Nav1.8 (setting [2]) was 5.27; at Human Nav1.5, less than 4.49.

With `Cc1nocc1C(=O)Nc1ccc(-c2cc(Cl)cc(Cl)c2Cl)c(N)n1` [Example 28, N-[6-Amino-5-(2,3,5-trichlorophenyl)pyridin-2-yl]-3-methylisoxazole-4-carboxamide], the pIC50 was 6.17 at Human Nav1.8 (setting [2]) and 5.02 on Human Nav1.5.

On to `COc1ccc(C(=O)Nc2ccc(-c3cc(Cl)ccc3Cl)c(N)n2)c(OC)c1` [Example 105], for which the pIC50 is 5.11 in assay [1] and 5.46 on Human Nav1.8 (setting [2]).

Consider `Cc1nocc1C(=O)Nc1ccc(-c2cc(F)ccc2OC2CCOC2)c(N)n1` (centres unmarked) [Example 167], for which the values for the pIC50 on Human Nav1.8 (setting [2]) and at Human Nav1.5 were 4.96 and less than 4.49, respectively.

Turning to `COc1ccc(Cl)c(-c2ccc(NC(=O)c3ccno3)nc2N)c1` [Example 76, N-[6-Amino-5-(2-chloro-5-methoxyphenyl)pyridin-2-yl]isoxazole-5-carboxamide], the pIC50 was 5.19 in assay [1] and 6.07 on Human Nav1.8 (setting [2]).

Regarding `CCOc1ccc(F)cc1-c1ccc(NC(=O)c2ccnn2C)nc1N` [Example 132], the pIC50 at Human Nav1.8 (setting [2]) was 5.82; on Human Nav1.5, less than 4.49.

On to `Nc1nc(NC(=O)c2ccccc2)ccc1-c1ccccc1Cl` [Example 98], for which the pIC50 in assay [1] is 5.00; at Human Nav1.8 (setting [2]) it was 5.70.

With `CC(C)COc1ccccc1-c1ccc(NC(=O)c2ccnn2C)nc1N` [Example 131], the figures for the pIC50 on Human Nav1.8 (setting [2]) and on Human Nav1.5 were 6.19 and 4.74, respectively.

`Cc1nocc1C(=O)Nc1ccc(-c2cc(F)ccc2OC(C)C)c(N)n1` [Example 145]: the pIC50 on Human Nav1.8 (setting [2]) was 5.82; on Human Nav1.5, 4.55.

Take `Cn1nccc1C(=O)Nc1ccc(-c2ccccc2CC(F)(F)F)c(N)n1` [Example 139]: the pIC50 on Human Nav1.8 (setting [2]) is 5.68; at Human Nav1.5, 5.12.

Regarding `COCCOc1ccc(Cl)c(-c2ccc(NC(=O)c3conc3C)nc2N)c1` [Example 170], the pIC50 is 6.05 at Human Nav1.8 (setting [2]) and 4.68 at Human Nav1.5.

With `CCOc1ccc(Cl)c(-c2ccc(NC(=O)c3ccnn3C)nc2N)c1` [Example 150], the pIC50 on Human Nav1.8 (setting [2]) was 5.60; at Human Nav1.5, 4.72.

As for `CCOc1ccccc1-c1ccc(NC(=O)c2ccnn2C)nc1N` [Example 130], the pIC50 on Human Nav1.8 (setting [2]) was 5.64; at Human Nav1.5, 4.66.

As for `Cc1oncc1C(=O)Nc1ccc(-c2cc(Cl)cc(Cl)c2Cl)c(N)n1` [Example 22, N-[6-Amino-5-(2,3,5-trichlorophenyl)pyridin-2-yl]-5-methylisoxazole-4-carboxamide], the pIC50 at Human Nav1.8 (setting [2]) was 6.00; on Human Nav1.5, 5.34.

In the case of `Cc1nonc1C(=O)Nc1ccc(-c2cc(Cl)ccc2Cl)c(N)n1` [Example 44, N-[6-Amino-5-(2,5-dichlorophenyl)pyridin-2-yl]-4-methyl-1,2,5-oxadiazole-3-carboxamide], the pIC50 in assay [1] was 5.09; on Human Nav1.8 (setting [2]) it was 5.49.

For the compound `Cn1nccc1C(=O)Nc1ccc(-c2cc(O)cc(Cl)c2Cl)c(N)n1` [Example 177], the results for the pIC50 on Human Nav1.8 (setting [2]) and on Human Nav1.5 were 5.89 and 4.92, respectively.

As to `COc1ccc(C(=O)Nc2ccc(-c3cc(Cl)ccc3Cl)c(N)n2)cc1OC` [Example 103], the pIC50 was 5.08 in assay [1] and 5.39 on Human Nav1.8 (setting [2]).

Take `Cn1nccc1C(=O)Nc1ccc(-c2ccccc2OCC2CC2)c(N)n1` [Example 143]: the pIC50 on Human Nav1.8 (setting [2]) is 6.01; at Human Nav1.5 it was 4.62.

These data come from patent US8134007B2, “Pyridine derivatives” (Pfizer Inc., priority 2007, dated 2012).
